From US9518283B1, “Selective enrichment media and uses thereof” (priority 2012, dated 2016) come the findings set out here.

For experiment [1], the system named is Shiga toxin-producing E. coli and Salmonella. It counts as cell-based.
The subject of experiment [2] is non-Salmonella gram negative species. Put plainly: Media formulations / selective agents tested against competitor species. The format is cell-based. The procedure:
Several media formulations were tested for permitting growth of Salmonella while inhibiting growth of non-Salmonella species. […] To minimize the potential of such environmental microflora to contribute to false positive reactions in selective indicator media, flavonoid compounds were investigated. Myricetin was tested as a potential suitable inhibitor for at least some of these gram negative species.

SMILES strings stand for the structures.

In the case of `CCN(CC)c1ccc(C(=C2C=CC(=[N+](CC)CC)C=C2)c2ccccc2)cc1` [Brilliant green], the “effect against Shiga toxin-producing E. coli (or Salmonella)” value in experiment [1] is “no effect”.
As to `O=c1c(O)c(-c2cc(O)c(O)c(O)c2)oc2cc(O)cc(O)c12` [Myricetin], the effectiveness as inhibitor result in experiment [2] (Citrobacter and E. coli inactive isolates) is reported as “of little use”; in experiment [2] (K. oxytoca and E. aerogenes), “effective”. Moreover, the inhibition entry in experiment [2] (Enterobacter and Klebsiella spp.) was “inhibits”.
Take `O=C1CN(N=Cc2ccc([N+](=O)[O-])o2)C(=O)N1` [nitrofurantoin, 1-[[(5-Nitro-2-furanyl)methylene]amino]-2,4-imidazolidinedione]: in experiment [1], the “effectiveness against Shiga toxin-producing E. coli and Salmonella” value is given as “surprisingly ineffective”.
